# Experimental data reported in article PMC12622905, “CYP71D8 and CYP82A2 catalyze the last committed step in biosynthesis of glyceollin isomers in soybean” (Plant Biotechnology, 2025).
# B1: CYP71D8 (GS1, glyceollin I synthase) (Glycine max) (protein)
# chain: MEYSPLSIVITFFVFLLLHWLVKTYKQKSSHKLPPGPWRLPIIGNLHQLALAASLPDQALQKLVRKYGPLMHLQLGEISTLVVSSPKMAMEMMKTHDVHFVQRPQLLAPQFMVYGATDIAFAPYGDYWRQIRKICTLELLSAKRVQSFSHIRQDENKKLIQSIHSSAGSPIDLSGKLFSLLGTTVSRAAFGKENDDQDEFMSLVRKAITMTGGFEVDDMFPSLKPLHLLTRQKAKVEHVHQRADKILEDILRKHMEKRTRVKEGNGSEAEQEDLVDVLLRLKESGSLEVPMTMENIKAVIWNIFAAGTDTSASTLEWAMSEMMKNPKVKEKAQAELRQIFKGKEIIRETDLEELSYLKSVIKETLRLHPPSQLIPRECIISTNIDGYEIPIKTKVMINTWAIGRDPQYWSDADRFIPERFNDSSIDFKGNSFEYIPFGAGRRMCPGMTFGLASITLPLALLLYHFNWELPNKMKPEDLDMDEHFGMTVARKNKLFLIPTVYEAS
# notes: full ORF in pYES2.1 TOPO; yeast BJ2168 microsomes co-expressing Lotus japonicus CPR
# B2: CYP82A2 (GS3, glyceollin III synthase) (Glycine max) (protein)
# chain: MELVLNSTTIGVGVVSLILLLYLFLRGGSWKSGEEGPPTVAGAWPIIGHLPLLLGSKTPHKTLGDLADKYGPIFSIKIGAKNAVVVSNWEMAKECYTTNDIAVSSLPDLISANLLCYNRSMIVVAPYGPYWRQLRKILMSEFLSPSRVEQLHHVRVSEVQSSITELFRDWRSNKNVQSGFATVELKQWFSLLVFNMILRMVCGKRYFSASTSDDEKANRCVKAVDEFVRLAATFTVGDAIPYLRWFDFGGYENDMRETGKELDEIIGEWLDEHRQKRKMGENVQDLMSVLLSLLEGKTIEGMNVDIVIKSFVLTVIQAGTEASITTLIWATSLILNNPSVLEKLKAELDIQVGKERYICESDLSKLTYLQAVVKETLRLYPPAPLSRPREFEEDCTIGGYTVKKGTRLITNLSKIHTDHNVWSNPLEFKPERFLTTDKDIDMKGQHFQLLPFGGGRRICPGINLGLQTVRLTLASFLHSFEILNPSTEPLDMTEVFRATNTKATPLEILIKPRLSPSCYESI
# notes: as for B1
# Experiments:
# [1] = biological target: T1, CYP82A24 (Glycine max, UniProt I1MI36); test: HPLC of glyceollin III formation, recombinant yeast microsomes; assay type: biochemical; settings: NADPH; potassium phosphate pH 7.5; 30°C
# T1 construct: gene LOC100782866; synthetic gene in pYES2 (BamHI site); recombinant yeast BJ2168 microsomes with Lotus japonicus CPR
# T1 sequence (I1MI36 1-521): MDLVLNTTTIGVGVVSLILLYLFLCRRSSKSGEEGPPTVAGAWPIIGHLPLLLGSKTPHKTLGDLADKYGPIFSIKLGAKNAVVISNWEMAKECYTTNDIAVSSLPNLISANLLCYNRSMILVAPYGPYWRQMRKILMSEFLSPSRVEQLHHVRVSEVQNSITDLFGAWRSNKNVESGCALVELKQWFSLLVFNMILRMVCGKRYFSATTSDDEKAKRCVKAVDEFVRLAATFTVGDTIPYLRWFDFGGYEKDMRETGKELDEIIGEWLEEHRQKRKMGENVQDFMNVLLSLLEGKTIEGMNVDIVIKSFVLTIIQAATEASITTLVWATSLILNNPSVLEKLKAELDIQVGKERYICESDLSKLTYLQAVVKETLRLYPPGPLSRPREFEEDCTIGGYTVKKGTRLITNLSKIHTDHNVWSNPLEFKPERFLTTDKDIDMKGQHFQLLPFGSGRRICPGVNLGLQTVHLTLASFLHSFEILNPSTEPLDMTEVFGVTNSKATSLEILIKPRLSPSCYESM
# [2] = biological target: T2, CYP71D106 (Glycine max, UniProt K7K4H7); test: HPLC of glyceollin I formation, recombinant yeast microsomes; assay type: biochemical; settings: NADPH; potassium phosphate pH 7.5; 30°C, 5 h
# T2 construct: gene LOC100817439; synthetic gene in pYES2 (BamHI site); recombinant yeast BJ2168 microsomes with Lotus japonicus CPR
# T2 sequence (K7K4H7 1-503): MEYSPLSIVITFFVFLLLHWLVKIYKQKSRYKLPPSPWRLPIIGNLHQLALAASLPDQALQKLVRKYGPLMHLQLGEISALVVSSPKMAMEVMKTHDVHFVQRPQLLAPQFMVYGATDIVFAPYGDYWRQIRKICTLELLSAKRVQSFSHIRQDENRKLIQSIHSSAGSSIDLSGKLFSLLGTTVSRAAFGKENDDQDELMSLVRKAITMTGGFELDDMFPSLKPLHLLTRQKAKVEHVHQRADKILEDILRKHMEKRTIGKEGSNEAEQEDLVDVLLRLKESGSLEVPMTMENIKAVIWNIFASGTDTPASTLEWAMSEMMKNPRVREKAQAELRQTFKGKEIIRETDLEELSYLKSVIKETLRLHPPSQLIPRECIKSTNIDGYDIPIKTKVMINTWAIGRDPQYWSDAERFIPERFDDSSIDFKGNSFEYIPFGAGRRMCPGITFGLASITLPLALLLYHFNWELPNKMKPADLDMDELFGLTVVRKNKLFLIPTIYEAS
# [3] = biological target: T3, CYP71D145 (Glycine max, UniProt A0A0R0HDK6); test: as above; assay type: biochemical; settings: NADPH; potassium phosphate pH 7.5; 30°C, 5 h
# T3 construct: gene GLYMA_11G062500; full ORF in pYES2.1 TOPO; recombinant yeast BJ2168 microsomes with Lotus japonicus CPR
# T3 sequence (A0A0R0HDK6 1-505): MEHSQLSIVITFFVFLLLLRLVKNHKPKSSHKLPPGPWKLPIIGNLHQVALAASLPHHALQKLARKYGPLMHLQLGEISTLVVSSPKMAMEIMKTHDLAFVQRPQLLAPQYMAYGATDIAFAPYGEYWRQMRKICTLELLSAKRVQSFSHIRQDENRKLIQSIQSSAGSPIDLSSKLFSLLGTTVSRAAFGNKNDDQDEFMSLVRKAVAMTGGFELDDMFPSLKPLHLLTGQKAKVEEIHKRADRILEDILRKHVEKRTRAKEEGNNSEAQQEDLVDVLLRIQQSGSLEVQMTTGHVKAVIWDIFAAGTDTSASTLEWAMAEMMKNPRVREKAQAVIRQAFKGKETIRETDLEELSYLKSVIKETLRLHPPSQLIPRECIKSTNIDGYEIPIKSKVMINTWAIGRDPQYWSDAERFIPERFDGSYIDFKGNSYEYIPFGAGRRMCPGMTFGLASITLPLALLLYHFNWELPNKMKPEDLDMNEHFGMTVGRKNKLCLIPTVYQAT
# [4] = substrate: CC(C)=CCc1c(O)ccc2c1OC[C@@]1(O)c3ccc(O)cc3O[C@@H]21; test: HPLC of glyceollin I formation, recombinant yeast microsomes, Michaelis-Menten fit; assay type: biochemical, Glycine max; settings: 2 mM NADPH, 0.1 M potassium phosphate pH 7.5, 10% sucrose, 14 mM 2-mercaptoethanol, 30°C, 20 min
# [5] = substrate: CC(C)=CCc1cc2c(cc1O)OC[C@@]1(O)c3ccc(O)cc3O[C@@H]21; test: HPLC of glyceollin III formation, recombinant yeast microsomes, Michaelis-Menten fit; assay type: biochemical, Glycine max; settings: 2 mM NADPH, 0.1 M potassium phosphate pH 7.5, 10% sucrose, 14 mM 2-mercaptoethanol, 30°C, 20 min
molecule,measurement,setting,value
"CC(C)=CCc1cc2c(cc1O)OC[C@@]1(O)c3ccc(O)cc3O[C@@H]21 [2DG, 2-dimethylallylglycinol]","HPLC of glyceollin III formation, recombinant yeast microsomes",[1],CYP82A24 also exhibited GS3 activity with 2-dimethylallylglycinol
"CC(C)=CCc1c(O)ccc2c1OC[C@@]1(O)c3ccc(O)cc3O[C@@H]21 [4DG, 4-dimethylallylglycinol]","HPLC of glyceollin I formation, recombinant yeast microsomes",[2],CYP71D106 yielded glyceollin I and two other unknown compounds (P1 and P2)
same,"HPLC of glyceollin I formation, recombinant yeast microsomes",[3],CYP71D145 produced only glyceollin I in the enzyme assay
B1,Km,[4],1.3 ± 0.2 µM
B2,Km,[5],9.5 ± 1.0 µM
